Consider two molecules from patent US6916802B2, “Amino ceramide-like compounds and therapeutic methods of use” (Genzyme Corporation, priority 2002, dated 2005).

Assay [1] has as its system GlcCer synthase of MDCK cell homogenates. The assay is described as follows: Inhibition of ceramide glucosyltransferase (GlcCer synthase) of MDCK cell homogenates. It is filed as biochemical, canine. The note with it: for Inhibition at 5 μM: 5 μM inhibitor, triplicate ± SD, samples partly isomer mixtures. The procedure, abridged: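 MDCK cell sonicate (~0.2 mg protein) incubated with octanoyl sphingosine (85 μg, in dioleoylphosphatidylcholine/sulfatide liposomes) and UDP-[^3H]glucose in a thermostatted ultrasonic bath. Aromatic inhibitors were dried into the tube; aliphatic inhibitors were incorporated in the substrate liposomes.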

The subject of assay [2] is H-460 lung large cell carcinoma cells. The assay is described as follows: Tumor cell growth in vitro (sulforhodamine B), H-460. It is filed as cell-based, human. The note with it: rounded off to one digit, read-out: Inhibition of tumor cell growth in vitro, IC50. The protocol: (§1) Growth of cell lines. Comparisons of different inhibitors with regard to suppression of human cancer cell growth were made by the University of Michigan Cancer Center in vitro Drug Evaluation Core Laboratory. MCF-7 breast carcinoma cells, HT-29 colon adenocarcinoma cells, H-460 lung large cell carcinoma cells, and 9L brain gliosarcoma cells were grown in RPMI 1640 medium with 5% fetal bovine serum, 2 mM glutamine, 50 units/ml of penicillin, […] of streptomycin, and 0.1 mg/ml of neomycin. UMSCC-10A head and neck squamous carcinoma cells were grown in minimal essential medium with Earle salts and the same supplements. Medium components were from Sigma Chemical Co. Cells were plated in 96-well microtiter plates (1000 cells/well for H-460 and 9L cells, and 2000 cells/well for the other lines), and the test compounds were added 1 day later. The stock inhibitor solutions, 2 mM in 2 mM BSA, were diluted with different amounts of additional 2 mM BSA, then each solution was diluted 500-fold with growth medium to obtain the final concentrations indicated in the Figures and Tables.
(§2) Five days after plating the H-460 and 9L cells, or 6 days for the other lines, cell growth was evaluated by staining the adhering cells with sulforhodamine B and measuring the absorbance at 520 nm (Skehan, P. et al., “New Colorimetric Cytotoxicity Assay for Anticancer-Drug Screening,” J. Natl. Cancer Inst., 82:1107-1112 (1990)). The absorbance of the treated cultures is reported as percent of that of control cultures, to provide an estimate of the fraction of the cells that survived, or of inhibition of growth rate.

The test system of the next assay is Acid SMase. Description: Acid sphingomyelinase of MDCK cells. It is filed as biochemical, canine. As to the method: Acid and neutral SMase assays were based on the procedures of Gatt et al. (Gatt, S. et al., “Assay of Enzymes of Lipid Metabolism With Colored and Fluorescent Derivatives of Natural Lipids,” Meth. Enzymol., 72:351-375 (1981)), using liposomes containing NBD-SM dispersed like the labeled ceramide (10 μM substrate and 30 μM lecithin). The assay medium for the neutral enzyme also contained 50 mM Tris-Cl^− (pH 7.4), 25 mM KCl, 5 mM MgCl2 and 0.29 mg of MDCK cell protein in a total volume of 0.25 ml. Incubation was at 37° C. for 30 min in the ultrasonic bath, then the fluorescent product, NBD-ceramide, was isolated by partitioning the assay mixture with 0.45 ml 2-propanol, 1.5 ml heptane, and 0.2 ml water. After centrifugation, a trace of contaminating NBD-SM was removed from 0.9 ml of the upper layer by washing with 0.35 ml water. The upper layer was analyzed with a fluorometer (460 nm excitation, 515 nm emission).
[…] The resultant ceramide was determined as above.

A further assay concerns Sphingomyelin synthase. Description: Sphingomyelin synthase of MDCK homogenate. It is filed as biochemical, canine. As to the method: Sphingomyelin synthase was evaluated with 44 μM [^14C]decanoyl sphingosine (10^5 cpm) dispersed with 136 μM dioleoyllecithin as in the ceramide synthase assay, and 5 mM EDTA and 50 mM Hepes-Na^+ pH 7.5, in a total volume of 0.5 ml. MDCK homogenate was centrifuged at 600×g briefly, then at 100,000×g for 1 h, and the pellet was suspended in water and sonicated with a dipping probe. A portion of this suspension containing 300 μg of protein was used. Incubation was at 37° C. for 30 min, after which the lipids were treated as above, using C-M-W 60:35:8 for the isolation of the labeled decanoyl SM.

Assay [3] concerns UMSCC-10A head and neck squamous carcinoma cells. The assay is described as follows: Tumor cell growth in vitro (sulforhodamine B), UMSCC-10A. It is filed as cell-based, human. The note with it: rounded off to one digit, read-out: Inhibition of tumor cell growth in vitro, IC50. As to the method:
as §1, §2

Marks after values point to notes of the source that are not given here.

`CCCCCCCCCCCCCCCC(=O)NC(CN1CCCC1)C(O)c1ccccc1` (racemic) [BML-129]: the “Inhibition at 5 μM” value in assay [1] came to 15%. For the same molecule, the half-maximal inhibitory concentration (IC50) in assay [2] and in assay [3] was 2000 nM in each case. For the same molecule, the “Sphingomyelinase pH 4.5, enzyme activity (% of control)” value was 108 ± 4 % of control with Acid SMase (5 μM) and 97 ± 3 % of control in the assay with Acid SMase (50 μM). Further, the results for the “Sphingomyelinase Synthase, enzyme activity (% of control)” value in the assay with Sphingomyelin synthase (5 μM) and in the assay on Sphingomyelin synthase (50 μM) were 84 ± 27 % of control and 46 ± 11^b % of control, respectively. For the same molecule, in the assay with Sphingomyelin synthase (50 μM), the “inhibition of sphingomyelin synthase” value was found to be 54%.
In the case of `CCCCCCCCCCCCCCCC(=O)NC(CN1CCCC1)C(O)c1ccccc1` (racemic) [BML-130], in assay [1], the “Inhibition at 5 μM” value is 79%. Further, the “degree of inhibition of GlcCer synthase” value in assay [1] (6 μM, inhibitor incorporated into the substrate liposomes) was determined as 89±0.6%. Also, the values for the half-maximal inhibitory concentration (IC50) in assay [2] and in assay [3] were 3000 nM and 2000 nM, respectively. Further, the “Sphingomyelinase pH 4.5, enzyme activity (% of control)” value was 109 ± 1 % of control in the assay on Acid SMase (5 μM) and 114 ± 2 % of control in the assay with Acid SMase (50 μM). Besides, the “Sphingomyelinase Synthase, enzyme activity (% of control)” value with Sphingomyelin synthase (5 μM) is 87 ± 14 % of control; in the assay on Sphingomyelin synthase (50 μM) it was 39 ± 18^b % of control. Besides, the “inhibition of sphingomyelin synthase” value in the assay on Sphingomyelin synthase (50 μM) is 61%.

As a reminder, the Inhibition is the share of the control response that was lost under treatment. Usually IC50 stands for the concentration that gives 50% inhibition.
